Read-outs that look alike come from different tables or passages of the source.
Tests used:
AMPK = conditions: cited from earlier work
amp-1(ok524) animals [1] = test system: amp-1(ok524) animals
Description: (§1) To determine if the AMP/ATP ratio changed with age, we measured the levels of AMP, ADP, and ATP directly. We lysed 30 adult worms of the appropriate age, grown at the indicated temperature, lysed them, and separated the extract by Reversed Phase HPLC, measuring the Absorbance 260 nm. We used a C. elegans strain that lacks sperm at 25 C [CF512: fem-1(−); fer-15(−)].
(§2) Thirty animals of the appropriate age were hand-transferred to ice-cold lysis buffer (ATP Bioluminiscense Kit, Roche), frozen in liquid nitrogen, boiled for 15 minutes, passed trough a 0.2μ filter (Nanosep), and subjected to isocratic reversed phase chromatography using a TARGA C18 250×4.6 mm 5 μM column equilibrated in 100 mM KH2PO4, pH 6.0 at 1 mL per min. Detection at 260 nm was performed using a WATERS 486 tunable detector. Peak areas were measured using PEAK EXPLORER™ software. […] Unless noted, animals were one day old adults.
(§3) Dauer assays, heat tolerance and behavioral assays were performed as described. Starvation was performed by transfer to bacteria-free, peptone-free plates. Treatment with […] sodium azide was performed by transfer to plates with the drug; fraction alive was determined visually, six hours after transfer to normal growth. Gut fluorescence was photographed on the focal plane of the lumen with a DM505 filter on a NIKON E800 microscope. Average intensity was determined with METAMORPH™ 6.1r1 software.

N2 (wild type) animals = test system: N2 (wild type) animals
Description: as §1, §2, §3

amp-1(ok524) animals [2] = conditions: 1 mM sodium azide for 18 hours; amp-1(ok524) versus wild type
Description: Dauer assays, heat tolerance and behavioral assays were performed as described. Starvation was performed by transfer to bacteria-free, peptone-free plates. […] Gut fluorescence was photographed on the focal plane of the lumen with a DM505 filter on a NIKON E800 microscope. Average intensity was determined with METAMORPH™ 6.1r1 software.

[3] = 1 mM Azide 4 hours, then no azide 1 hour

In the case of `CN(C)C(=N)N=C(N)N` [Metformin], the “effect on AMPK activity” value (AMPK) is listed as “stimulate AMPK activity”.

With `[N-]=[N+]=[N-]` [sodium azide] the “AMP/ATP Average” value (amp-1(ok524) animals [1]; 1 mM Azide 1 hour) was 3.19, the “AMP/ATP Average” value (amp-1(ok524) animals [1]; 1 mM Azide 4 hours) was 4.34 and the “AMP/ATP Average” value (amp-1(ok524) animals [1]; [3]) was 1.24. The “AMP/ATP Average” value (amp-1(ok524) animals [1]; 1 mM Azide 4 hours, then no azide 2 hour) was 1.29, the “AMP/ATP Average” value (N2 (wild type) animals; 1 mM Azide 1 hour) was 2.08 and the “AMP/ATP Average” value (N2 (wild type) animals; 1 mM Azide 4 hours) was 2.53. The “AMP/ATP Average” value (N2 (wild type) animals; [3]) was 1.08 and the sensitivity to killing (amp-1(ok524) animals [2]) was “more sensitive than wild type animals to killing”.

For “Leptin: peptide hormone that increases AMPK activity when applied to cells”, the “effect on AMPK activity” value (AMPK; applied to cells) is given as “increases AMPK activity”.

B1: adiponectin: globular and full-length adiponectin protein (protein, UniProt Q15848 19-244, looked up)
Adiponectin: ETTTQGPGVLLPLPKGACTGWMAGIPGHPGHNGAPGRDGRDGTPGEKGEKGDPGLIGPKGDIGETGVPGAEGPRGFPGIQGRKGEPGEGAYVYRSAFSVGLETYVTIPNMPIRFTKIFYNQQNHYDGSTGKFHCNIPGLYYFAYHITVYMKDVKVSLFKKDKAMLFTYDQYQENNVDQASGSVLLHLEVGDQVWLQVYGEGERNGLYADNDNDSTFTGFLLYHDTN
In the case of B1, the “effect on AMPK activity” value (AMPK; liver cells) is listed as “stimulates AMPK activity” and the “effect on AMPK activity” value (AMPK; skeletal muscle) is listed as “stimulate AMPK activity”.
